Data taken from the supplement of paper PMC10307832.

Each cell line was assayed with Cc1cc([C@@H](C)Nc2ccccc2C(=O)O)c2nc(N3CCOCC3)cc(=O)n2c1 [AZD6482] + CC(=O)c1c(C)c2cnc(Nc3ccc(N4CCNCC4)cn3)nc2n(C2CCCC2)c1=O [Palbociclib] (partner 0.5 µM) (assay: relative viability (nuclei count vs DMSO), 5 days (fraction); higher = more cells survive). Settings: first compound 0.08 µM.
How it was run: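 Each reported value is a median over duplicate plates. It expresses relative viability: treated-well nuclei count divided by vehicle-well nuclei count. Lung cancer cell lines in 1536-well plates were dosed by pin tool a day after seeding, alone with one drug or with a fixed anchor-drug dose plus five library-drug doses (not always all listed) in √10 steps, and nuclei were counted after 5 days.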

Cell Line	relative viability
HCC-44	0.858
NCI-H522	1.07
LU99A	0.373
BEN	0.442
HARA	0.182
SW 900	0.474
HCC-78	0.402
NCI-H322M	0.447
LCLC-97TM1	0.167
NCI-H2009	0.187
A-427	0.462
NCI-H441	0.248
NCI-H661	0.41
NCI-H1734	0.301
NCI-H460	0.124
NCI-H2347	0.35
NCI-H1395	0.49
201T	0.351
NCI-H1915	0.478
HCC-827	0.437
LXF-289	0.565
NCI-H23	0.471
NCI-H647	0.305

Cell Line	relative viability
CAL-12T	0.416
NCI-H1651	0.485
EPLC-272H	0.297
NCI-H2228	0.374
NCI-H1792	0.593
NCI-H1355	0.294
NCI-H3122	0.192
NCI-H1437	0.353
NCI-H1755	0.425
NCI-H2023	0.265
HCC-15	0.652
NCI-H1793	0.243
PC-14	0.447
EKVX	0.283
LC-2-ad	0.478
NCI-H1944	0.293
NCI-H1975	0.439
RERF-LC-KJ	0.961
ABC-1	0.603
NCI-H358	0.149
NCI-H650	0.364
PC-3 [JPC-3]	0.559

Same assay, conditions: first compound 0.253 µM

Cell Line	relative viability
HCC-44	0.988
NCI-H522	0.933
LU99A	0.368
BEN	0.452
HARA	0.199
SW 900	0.434
HCC-78	0.449
NCI-H322M	0.486
LCLC-97TM1	0.225
NCI-H2009	0.176
A-427	0.528
NCI-H441	0.246
NCI-H661	0.43
NCI-H1734	0.333
NCI-H460	0.138
NCI-H2347	0.389
SK-LU-1	0.346
NCI-H1395	0.486
201T	0.354
NCI-H1915	0.524
HCC-827	0.504
LXF-289	0.605
NCI-H23	0.421

Cell Line	relative viability
NCI-H647	0.293
CAL-12T	0.314
NCI-H1651	0.493
EPLC-272H	0.292
NCI-H2228	0.565
NCI-H1792	0.611
NCI-H1355	0.374
NCI-H3122	0.198
NCI-H1437	0.319
NCI-H1755	0.416
NCI-H2023	0.328
HCC-15	0.631
NCI-H1793	0.215
PC-14	0.524
EKVX	0.325
LC-2-ad	0.539
NCI-H1944	0.313
NCI-H1975	0.558
RERF-LC-KJ	0.981
ABC-1	0.79
NCI-H358	0.121
NCI-H650	0.291
PC-3 [JPC-3]	0.564

Same assay, conditions: first compound 0.8 µM

Cell Line	relative viability
HCC-44	1.04
NCI-H522	0.691
LU99A	0.397
BEN	0.446
HARA	0.368
SW 900	0.348
HCC-78	0.4
NCI-H322M	0.476
LCLC-97TM1	0.188
NCI-H2009	0.172
A-427	0.495
NCI-H441	0.215
NCI-H661	0.41
NCI-H1734	0.346
NCI-H460	0.269
NCI-H2347	0.406
SK-LU-1	0.376
NCI-H1395	0.482
201T	0.309
NCI-H1915	0.529
HCC-827	0.435
LXF-289	0.634
